Test results taken from ChEMBL document CHEMBL4014349, “Application of Structure-Based Design and Parallel Chemistry to Identify a Potent, Selective, and Brain Penetrant Phosphodiesterase 2A Inhibitor” (J Med Chem, 2017).

Tests used:
Format in all cases: ADME, organism-based
[1] = Drug uptake in mouse plasma at […], sc after 30 mins
[2] = Drug uptake in rat cerebrospinal fluid at 3 mg/kg, sc after 30 mins; settings: read-out: Drug uptake
[3] = Drug uptake in rat plasma at 3 mg/kg, sc after 30 mins
[4] = Drug uptake in rat brain at 3 mg/kg, sc after 30 mins; settings: read-out: Drug uptake
Plasma [5] = assay: Unbound concentration in mouse plasma at […], sc after 30 mins; settings: in vivo, 0.5 h
Brain [6] = assay: Unbound concentration in rat brain at 3 mg/kg, sc after 30 mins; settings: in vivo, 0.5 h
Plasma [7] = assay: Unbound concentration in rat plasma at 3 mg/kg, sc after 30 mins; settings: in vivo, 0.5 h
[8] = Drug uptake in mouse brain at […], sc after 30 mins; settings: read-out: Drug uptake
[9] = Ratio of unbound concentration in mouse brain to plasma at […], sc after 30 mins; settings: brain and plasma, read-out: K(p,uu,brain)
[10] = Ratio of unbound concentration in rat brain to plasma at 3 mg/kg, sc after 30 mins; settings: brain and plasma, read-out: K(p,uu,brain)
Brain [11] = assay: Unbound concentration in mouse brain at […], sc after 30 mins; settings: in vivo, 0.5 h

concentration at 0.5 h [1]: 798 nM
concentration at 0.5 h [2]: 79.9 nM
concentration at 0.5 h [3]: 776 nM
concentration at 0.5 h [4]: 950 nM
Cp(f) (Plasma [5]): 160 nM
Drug uptake(free) (Brain [6]): 90.2 nM
Cp(f) (Plasma [7]): 248 nM
concentration at 0.5 h [8]: 452 nM
Kp uu at 0.5 h [9]: 0.27
Kp uu at 0.5 h [10]: 0.37
Drug uptake(free) (Brain [11]): 43 nM
SMILES: Cn1ncc(-c2nn(C)c3ncnc(N4CCC4)c23)c1-c1ccc(C(F)(F)F)cc1
